Results: PubChem BioAssay AID248 (DTP/NCI, 2004)
Where “and” joins values, the source holds several entries; their conditions need not be identical. Equal values may be shown once. Inconclusive results and toxic doses are left out.

Test system: L1210 leukemia ip in BDF1 mice, survival T/C
Assay: NCI In Vivo Anticancer Drug Screen. Data for tumor model L1210 Leukemia (intraperitoneal) in B6D2F1 (BDF1) mice
Conditions: endpoint: mean survival time, higher = longer survival
How it was run: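 Transplantable tumor model; survival measured in treated vs vehicle control mice. Value = treated/control.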

[1] = dose: 100.0 mg/kg/injection, schedule: Q04DX003 (ip), vehicle: saline with Tween-80
[2] = dose: 200.0 mg/kg/injection, schedule: Q04DX003 (ip), vehicle: saline with Tween-80
[3] = dose: 400.0 mg/kg/injection, schedule: Q04DX003 (ip), vehicle: saline with Tween-80
[4] = dose: 100.0 mg/kg/injection, schedule: Q01DX009 (ip), vehicle: saline with Tween-80
[5] = dose: 200.0 mg/kg/injection, schedule: Q01DX009 (ip), vehicle: saline with Tween-80
[6] = dose: 50.0 mg/kg/injection, schedule: Q01DX001 (ip), vehicle: Klucel (hydroxypropylcellulose) (HPC)
[7] = dose: 100.0 mg/kg/injection, schedule: Q01DX001 (ip), vehicle: Klucel (hydroxypropylcellulose) (HPC)
[8] = dose: 200.0 mg/kg/injection, schedule: Q01DX001 (ip), vehicle: Klucel (hydroxypropylcellulose) (HPC)
[9] = dose: 100.0 mg/kg/injection, schedule: Q01DX009 (ip), vehicle: Klucel (hydroxypropylcellulose) (HPC)
[10] = dose: 100.0 mg/kg/injection, schedule: Q04DX003 (ip), vehicle: Klucel (hydroxypropylcellulose) (HPC)
[11] = dose: 200.0 mg/kg/injection, schedule: Q01DX009 (ip), vehicle: Klucel (hydroxypropylcellulose) (HPC)
[12] = dose: 200.0 mg/kg/injection, schedule: Q04DX003 (ip), vehicle: Klucel (hydroxypropylcellulose) (HPC)
[13] = dose: 400.0 mg/kg/injection, schedule: Q01DX009 (ip), vehicle: Klucel (hydroxypropylcellulose) (HPC)
[14] = dose: 400.0 mg/kg/injection, schedule: Q04DX003 (ip), vehicle: Klucel (hydroxypropylcellulose) (HPC)
[15] = dose: 100.0 mg/kg/injection, schedule: Q04DX002 (ip), vehicle: Klucel (hydroxypropylcellulose) (HPC)
[16] = dose: 200.0 mg/kg/injection, schedule: Q04DX002 (ip), vehicle: Klucel (hydroxypropylcellulose) (HPC)
[17] = dose: 400.0 mg/kg/injection, schedule: Q04DX002 (ip), vehicle: Klucel (hydroxypropylcellulose) (HPC)
[18] = dose: 100.0 mg/kg/injection, schedule: Q04DX003 (ip), vehicle: water
[19] = dose: 200.0 mg/kg/injection, schedule: Q04DX003 (ip), vehicle: water
[20] = dose: 100.0 mg/kg/injection, schedule: Q01DX009 (ip), vehicle: gum acacia
[21] = dose: 200.0 mg/kg/injection, schedule: Q01DX009 (ip), vehicle: gum acacia
[22] = dose: 400.0 mg/kg/injection, schedule: Q01DX009 (ip), vehicle: saline with Tween-80
[23] = dose: 100.0 mg/kg/injection, schedule: Q04DX002 (ip), vehicle: saline with Tween-80
[24] = dose: 200.0 mg/kg/injection, schedule: Q04DX002 (ip), vehicle: saline with Tween-80

Question: Nc1nc(N)c2cc(CCc3ccc(C(=O)NC(CCC(=O)O)C(=O)O)cc3)ccc2n1 (stereo not drawn) was tested. Which T/C (dose: 39.0 micrograms/kg/injection, schedule: Q01DX009 (ip), vehicle: Klucel (hydroxypropylcellulose) (HPC)) did it give?
Answer: 111 % of control

Question: What about the T/C (dose: 78.0 micrograms/kg/injection, schedule: Q01DX009 (ip), vehicle: Klucel (hydroxypropylcellulose) (HPC)) of the same molecule?
Answer: 117 % of control

Question: And the T/C (dose: 156.0 micrograms/kg/injection, schedule: Q01DX009 (ip), vehicle: Klucel (hydroxypropylcellulose) (HPC))?
Answer: 117 % of control

Question: And the T/C (dose: 625.0 micrograms/kg/injection, schedule: Q01DX009 (ip), vehicle: Klucel (hydroxypropylcellulose) (HPC))?
Answer: 170 % of control

Question: Which T/C [1] does the source give for COc1ccc(-n2c(=O)c(N=Nc3ccccc3)c(O)n(-c3ccc(I)cc3)c2=S)cc1 here?
Answer: 97 % of control

Question: And the T/C [2]?
Answer: 100 % of control

Question: And the T/C [3]?
Answer: 116 % of control

Question: CCOc1ccc(NC(=S)NC(=O)c2ccccc2F)cc1 was tested. Which T/C (dose: 25.0 mg/kg/injection, schedule: Q01DX009 (ip), vehicle: saline with Tween-80) did it give?
Answer: 92 % of control

Question: And the T/C (dose: 50.0 mg/kg/injection, schedule: Q01DX009 (ip), vehicle: saline with Tween-80)?
Answer: 104 % of control

Question: And the T/C [4]?
Answer: 87 % of control

Question: What about the T/C [5] of the same molecule?
Answer: 87 % of control

Question: For CCOC(=O)c1cnc(SC)nc1Nc1ccccc1N, which T/C [6] is on record?
Answer: 94 % of control

Question: What about the T/C [7] of the same molecule?
Answer: 94 % of control

Question: And the T/C [8]?
Answer: 101 % of control

Question: What does the source list for O=C(Nc1c[nH]c(=O)[nH]c1=O)Oc1ccccc1?
Answer: T/C [9]: 98 % of control; T/C [10]: 100 % of control; T/C [11]: 95 % of control; T/C [12]: 88 % of control; T/C [13]: 93 % of control; T/C [14]: 100 % of control

Question: With Cc1ccc(C2C(C(=O)O)C2c2ccccc2)cc1 (stereo not drawn) as the molecule, how does the T/C [15] read?
Answer: 106 % of control

Question: What about the T/C [16] of the same molecule?
Answer: 95 % of control

Question: And the T/C [17]?
Answer: 92 % of control

Question: Which results are given for CCCCCCC1C/C(=C/N(C)C)C(=O)O1 (stereo not drawn)?
Answer: T/C [15]: 90 % of control; T/C [16]: 90 % of control; T/C [17]: 93 % of control

Question: Which results are given for COc1ccc(/C=C/C(=O)c2ccccc2)cc1OC?
Answer: T/C (dose: 50.0 mg/kg/injection, schedule: Q01DX009 (ip), vehicle: Klucel (hydroxypropylcellulose) (HPC)): 92 % of control and 103 % of control; T/C [9]: 105 % of control and 108 % of control; T/C [10]: 104 % of control; T/C [18]: 93 % of control; T/C [11]: 99 % of control and 95 % of control; T/C [12]: 98 % of control; T/C [19]: 102 % of control; T/C [13]: 93 % of control; T/C [14]: 91 % of control; T/C (dose: 400.0 mg/kg/injection, schedule: Q04DX003 (ip), vehicle: water): 96 % of control

Question: Which results are given for CCCOC(=O)COc1ccc(Cl)cc1C?
Answer: T/C [10]: 96 % of control; T/C [12]: 96 % of control; T/C [14]: 91 % of control

Question: Which T/C [20] does the source give for CC(C)(C)c1ccc(OC(=O)Nc2cccc(C(F)(F)F)c2)cc1 here?
Answer: 101 % of control

Question: What about the T/C [21] of the same molecule?
Answer: 95 % of control

Question: And the T/C (dose: 400.0 mg/kg/injection, schedule: Q01DX009 (ip), vehicle: gum acacia)?
Answer: 103 % of control

Question: Which results are given for C/C(C(=O)O)=C(/Cl)c1c(C)cc(C)c(Br)c1C?
Answer: T/C (dose: 100.0 mg/kg/injection, schedule: Q01DX001 (ip), vehicle: gum acacia): 89 % of control; T/C [20]: 108 % of control; T/C (dose: 200.0 mg/kg/injection, schedule: Q01DX001 (ip), vehicle: gum acacia): 93 % of control; T/C [21]: 105 % of control; T/C (dose: 400.0 mg/kg/injection, schedule: Q01DX001 (ip), vehicle: gum acacia): 91 % of control

Question: For COC(=O)NCC1OC(n2cnc3c(N)ncnc32)C(O)C1O (stereo not drawn), which T/C (dose: 100.0 mg/kg/injection, schedule: Q01DX005 (ip), vehicle: saline) is on record?
Answer: 92 % of control

Question: What about the T/C (dose: 200.0 mg/kg/injection, schedule: Q01DX005 (ip), vehicle: saline) of the same molecule?
Answer: 94 % of control

Question: What does the source list for Nc1n[nH]c(N)n1.[Ni]?
Answer: T/C [4]: 101 % of control; T/C [1]: 113 % of control; T/C [5]: 111 % of control; T/C [2]: 103 % of control; T/C [22]: 104 % of control; T/C [3]: 98 % of control

Question: Which results are given for CN(C)c1ccc(C(C#N)C(C#N)c2ccccc2)cc1 (stereo not drawn)?
Answer: T/C [6]: 88 % of control; T/C [7]: 88 % of control; T/C [8]: 88 % of control

Question: How did the T/C [4] turn out when COC(=O)/C=C/N(Cc1ccccc1)Cc1ccccc1 was run?
Answer: 103 % of control

Question: What about the T/C [5] of the same molecule?
Answer: 95 % of control

Question: And the T/C [22]?
Answer: 91 % of control

Question: Which T/C (dose: 1.2 mg/kg/injection, schedule: Q01DX001 (ip), vehicle: saline) does the source give for CC1=CC23C(COC(=O)C24CO4)C(C(=O)O)=CC3C1C (stereo not drawn) (tested in a mixture with another compound) here?
Answer: 101 % of control

Question: And the T/C (dose: 2.5 mg/kg/injection, schedule: Q01DX001 (ip), vehicle: saline)?
Answer: 100 % of control

Question: How did the T/C (dose: 25.0 mg/kg/injection, schedule: Q01DX009 (ip), vehicle: water) turn out when N/C(=N\O)c1cccnc1 was run?
Answer: 98 % of control

Question: And the T/C (dose: 50.0 mg/kg/injection, schedule: Q01DX009 (ip), vehicle: water)?
Answer: 106 % of control

Question: What about the T/C [4] of the same molecule?
Answer: 100 % of control

Question: And the T/C (dose: 100.0 mg/kg/injection, schedule: Q01DX009 (ip), vehicle: water)?
Answer: 101 % of control

Question: What about the T/C [18] of the same molecule?
Answer: 100 % of control

Question: What about the T/C [5] of the same molecule?
Answer: 96 % of control

Question: And the T/C (dose: 200.0 mg/kg/injection, schedule: Q01DX009 (ip), vehicle: water)?
Answer: 97 % of control

Question: What about the T/C [19] of the same molecule?
Answer: 107 % of control

Question: Which T/C (dose: 1.56 mg/kg/injection, schedule: Q01DX001 (ip), vehicle: saline) does the source give for Cc1cc(Br)c2c(c1O)C13CCN(C)C(C2)C1CC(Br)C(=O)C3 (stereo not drawn) here?
Answer: 97 % of control

Question: And the T/C (dose: 3.12 mg/kg/injection, schedule: Q01DX001 (ip), vehicle: saline)?
Answer: 100 % of control

Question: What about the T/C (dose: 6.25 mg/kg/injection, schedule: Q01DX001 (ip), vehicle: saline) of the same molecule?
Answer: 105 % of control

Question: And the T/C (dose: 12.5 mg/kg/injection, schedule: Q01DX001 (ip), vehicle: saline)?
Answer: 108 % of control

Question: Which T/C (dose: 6.25 mg/kg/injection, schedule: Q01DX009 (ip), vehicle: saline sonified) does the source give for CCCCOB(CI)OCCCC here?
Answer: 96 % of control

Question: What about the T/C (dose: 6.25 mg/kg/injection, schedule: Q04DX003 (ip), vehicle: saline sonified) of the same molecule?
Answer: 94 % of control

Question: What about the T/C (dose: 12.5 mg/kg/injection, schedule: Q01DX009 (ip), vehicle: saline sonified) of the same molecule?
Answer: 100 % of control

Question: What about the T/C (dose: 12.5 mg/kg/injection, schedule: Q04DX003 (ip), vehicle: saline sonified) of the same molecule?
Answer: 92 % of control

Question: What about the T/C (dose: 25.0 mg/kg/injection, schedule: Q01DX009 (ip), vehicle: saline sonified) of the same molecule?
Answer: 104 % of control

Question: And the T/C (dose: 25.0 mg/kg/injection, schedule: Q04DX003 (ip), vehicle: saline sonified)?
Answer: 105 % of control

Question: Which results are given for CCCCCCCCOC(=O)CCCCl?
Answer: T/C [23]: 107 % of control; T/C [24]: 100 % of control; T/C (dose: 400.0 mg/kg/injection, schedule: Q04DX002 (ip), vehicle: saline with Tween-80): 102 % of control

Question: What does the source list for C[CH2][Sn]([CH2]c1ccccc1)([c]1ccccc1)[c]1ccccc1?
Answer: T/C [10]: 95 % of control; T/C [12]: 101 % of control; T/C [14]: 93 % of control

Question: With O=C/C(=C/Nc1ccc(C(=O)O)cc1)[N+](=O)[O-] as the molecule, how does the T/C [15] read?
Answer: 109 % of control

Question: And the T/C [16]?
Answer: 98 % of control

Question: What about the T/C [17] of the same molecule?
Answer: 98 % of control

Question: Which results are given for CC(=O)NC1CCC(/C=C(\C#N)C2CCC(C)CC2)CC1 (stereo not drawn)?
Answer: T/C [23]: 87 % of control; T/C [24]: 93 % of control

Question: What does the source list for CCCCCCCCCC(=O)CCCCC?
Answer: T/C (dose: 100.0 mg/kg/injection, schedule: Q01DX009 (ip), vehicle: other): 100 % of control; T/C (dose: 200.0 mg/kg/injection, schedule: Q01DX009 (ip), vehicle: other): 98 % of control; T/C (dose: 400.0 mg/kg/injection, schedule: Q01DX009 (ip), vehicle: other): 93 % of control

Question: COc1ccc(OC)c(/C=C/C=O)c1 was tested. Which T/C (dose: 100.0 mg/kg/injection, schedule: Q01DX001 (ip), vehicle: saline) did it give?
Answer: 110 % of control

Question: And the T/C (dose: 200.0 mg/kg/injection, schedule: Q01DX001 (ip), vehicle: saline)?
Answer: 96 % of control

Question: And the T/C (dose: 400.0 mg/kg/injection, schedule: Q01DX001 (ip), vehicle: saline)?
Answer: 98 % of control
